Assay results: publication PMC10783514, “Synthesis of peptide–siRNA conjugates via internal sulfonylphosphoramidate modifications and evaluation of their in vitro activity” (Nucleic Acids Research, 2023)

Biological target: T1, human GLP1R (Homo sapiens, UniProt P43220)
T1 construct: expressed in transfected cells
Test: GLP1R activity assay (CRE/luciferase reporter, cAMP potency)
Type: cell-based
Details: BHK cells stably co-expressing human GLP1R and CRE luciferase reporter; 3 h at 37°C; 8 concentrations; four-parameter logistic fit (Hill slope = 1); mean of n = 3 independent experiments; read-out: EC50, activation of GLP1R
Procedure: GLP1R activity was measured through cyclic adenosine monophosphate (cAMP) potency using a clonal BHK cell line that stably co-express human GLP1R and the cAMP response element (CRE) luciferase reporter gene, essentially as previously reported ([33]). Briefly, frozen stocks of assay-ready cells were thawed to 37°C, washed once with PBS, and diluted to 100 000 cells/ml in assay buffer (DMEM without phenol red supplemented with 1× GlutaMAX, 10 mM HEPES, 1 w/v% ovalbumin, and 0.1 v/v% Pluronic F-68). Serial dilutions (10-fold dilutions in assay buffer, 8 concentrations for each compound) were made for GLP1–siRNA conjugates and free peptides in 96 well dilution plates using a Biomek i7 liquid handler. Then, 50 μl of each dilution were transferred to 96-well assay plates to which 50 μl of the diluted cell suspension was added (5000 cells/well). Plates were incubated for 3 h at 37°C in 5% CO2, then left at room temperature for 5 min before 100 μl SteadyLite Plus (PerkinElmer) was added to each well. Plates were sealed from light and incubated at room temperature for 30 min while gently shaking before luminescence was detected on a Biotek Synergy 2 plate reader.
This is performed by using a luciferase reporter under the control of CRE in recombinant BHK cells constitutively expressing human GLP1R. […]

T1 sequence (P43220 24-463): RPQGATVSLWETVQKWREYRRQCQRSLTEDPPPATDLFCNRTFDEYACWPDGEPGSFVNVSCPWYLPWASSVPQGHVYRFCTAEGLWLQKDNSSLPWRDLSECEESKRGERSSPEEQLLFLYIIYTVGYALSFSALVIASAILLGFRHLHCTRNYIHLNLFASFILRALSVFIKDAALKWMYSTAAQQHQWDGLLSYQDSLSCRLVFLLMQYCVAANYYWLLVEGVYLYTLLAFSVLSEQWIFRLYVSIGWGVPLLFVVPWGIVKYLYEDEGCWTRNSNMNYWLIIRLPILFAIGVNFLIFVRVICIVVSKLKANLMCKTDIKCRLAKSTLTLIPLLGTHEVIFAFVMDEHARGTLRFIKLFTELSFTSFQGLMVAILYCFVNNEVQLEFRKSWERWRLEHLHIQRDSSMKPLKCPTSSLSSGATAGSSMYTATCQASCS

CC[C@H](C)[C@H](NC(=O)[C@H](Cc1ccccc1)NC(=O)[C@H](CCC(=O)O)NC(=O)[C@H](CCCNC(=N)N)NC(=O)[C@H](C)NC(=O)[C@H](C)NC(=O)[C@H](CCC(N)=O)NC(=O)CNC(=O)[C@H](CCC(=O)O)NC(=O)[C@H](CC(C)C)NC(=O)[C@H](Cc1ccc(O)cc1)NC(=O)[C@H](CO)NC(=O)[C@H](CO)NC(=O)[C@@H](NC(=O)[C@H](CC(=O)O)NC(=O)[C@H](CO)NC(=O)[C@@H](NC(=O)[C@H](Cc1ccccc1)NC(=O)[C@@H](NC(=O)CNC(=O)[C@H](CCC(=O)O)NC(=O)[C@H](C)NC(=O)[C@@H](N)Cc1c[nH]cn1)[C@@H](C)O)[C@@H](C)O)C(C)C)C(=O)N[C@@H](C)C(=O)N[C@@H](Cc1c[nH]c2ccccc12)C(=O)N[C@@H](CC(C)C)C(=O)N[C@H](C(=O)N[C@@H](CCCNC(=N)N)C(=O)NCC(=O)N[C@@H](CCCNC(=N)N)C(=O)NCC(=O)N[C@@H](CCCCN)C(=O)O)C(C)C [A]
EC50: 9 pM
